Usually IC50 stands for the concentration that gives 50% inhibition. Broadly, the AC50 is the midpoint of the concentration-response curve, whichever way the signal moves. As usually defined, the EC50 is the concentration giving half of the maximal effect.

The values below come from ChEMBL document CHEMBL1201862, “PubChem BioAssay data set” (2004).

Molecules are shown by their SMILES. Calls of active or inactive are those of the source.

For test [1], the target named is Protein-tyrosine kinase 2-beta (Homo sapiens, UniProt Q14289).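 Also: potency of inhibitors of PYK2 kinase phosphorylation of poly-GT substrate.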
Test [2] deals with T1, Apoptotic protease-activating factor 1 (Homo sapiens, UniProt O14727).
T1 sequence (O14727 whole entry): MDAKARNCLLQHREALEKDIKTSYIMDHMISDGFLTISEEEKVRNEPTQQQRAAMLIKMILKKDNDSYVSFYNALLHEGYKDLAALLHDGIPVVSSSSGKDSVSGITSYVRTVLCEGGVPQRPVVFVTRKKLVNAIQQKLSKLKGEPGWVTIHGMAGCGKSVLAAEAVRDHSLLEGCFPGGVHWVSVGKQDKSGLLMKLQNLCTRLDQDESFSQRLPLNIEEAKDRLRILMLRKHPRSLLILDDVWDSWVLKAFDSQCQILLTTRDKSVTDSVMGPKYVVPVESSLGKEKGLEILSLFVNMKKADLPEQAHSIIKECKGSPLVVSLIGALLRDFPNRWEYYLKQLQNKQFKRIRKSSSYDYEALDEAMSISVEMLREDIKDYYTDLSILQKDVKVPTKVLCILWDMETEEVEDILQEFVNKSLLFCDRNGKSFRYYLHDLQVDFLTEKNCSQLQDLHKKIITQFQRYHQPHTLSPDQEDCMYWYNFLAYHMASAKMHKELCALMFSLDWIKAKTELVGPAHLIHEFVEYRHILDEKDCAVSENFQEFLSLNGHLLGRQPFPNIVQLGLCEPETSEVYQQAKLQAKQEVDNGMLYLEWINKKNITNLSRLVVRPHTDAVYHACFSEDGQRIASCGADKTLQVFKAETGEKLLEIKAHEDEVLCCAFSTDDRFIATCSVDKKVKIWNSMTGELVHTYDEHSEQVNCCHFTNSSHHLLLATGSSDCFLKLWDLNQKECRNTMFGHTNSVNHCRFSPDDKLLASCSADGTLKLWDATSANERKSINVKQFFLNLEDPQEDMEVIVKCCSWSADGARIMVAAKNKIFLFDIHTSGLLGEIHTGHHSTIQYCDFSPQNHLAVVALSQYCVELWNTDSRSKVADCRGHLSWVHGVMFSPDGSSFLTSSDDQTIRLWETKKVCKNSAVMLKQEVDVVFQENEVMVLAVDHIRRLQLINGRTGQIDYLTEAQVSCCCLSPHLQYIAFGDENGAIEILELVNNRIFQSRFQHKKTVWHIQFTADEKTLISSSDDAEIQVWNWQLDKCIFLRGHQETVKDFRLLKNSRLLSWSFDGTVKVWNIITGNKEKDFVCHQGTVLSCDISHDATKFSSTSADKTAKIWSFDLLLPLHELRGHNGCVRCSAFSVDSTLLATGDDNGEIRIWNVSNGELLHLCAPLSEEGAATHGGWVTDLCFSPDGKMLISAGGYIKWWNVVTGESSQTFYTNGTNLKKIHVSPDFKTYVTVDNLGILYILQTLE
It is filed as functional.

Test [3] concerns the target T2, Replicative DNA helicase DnaB (Mycobacterium tuberculosis, UniProt P9WMR3).
T2 sequence (P9WMR3 whole entry): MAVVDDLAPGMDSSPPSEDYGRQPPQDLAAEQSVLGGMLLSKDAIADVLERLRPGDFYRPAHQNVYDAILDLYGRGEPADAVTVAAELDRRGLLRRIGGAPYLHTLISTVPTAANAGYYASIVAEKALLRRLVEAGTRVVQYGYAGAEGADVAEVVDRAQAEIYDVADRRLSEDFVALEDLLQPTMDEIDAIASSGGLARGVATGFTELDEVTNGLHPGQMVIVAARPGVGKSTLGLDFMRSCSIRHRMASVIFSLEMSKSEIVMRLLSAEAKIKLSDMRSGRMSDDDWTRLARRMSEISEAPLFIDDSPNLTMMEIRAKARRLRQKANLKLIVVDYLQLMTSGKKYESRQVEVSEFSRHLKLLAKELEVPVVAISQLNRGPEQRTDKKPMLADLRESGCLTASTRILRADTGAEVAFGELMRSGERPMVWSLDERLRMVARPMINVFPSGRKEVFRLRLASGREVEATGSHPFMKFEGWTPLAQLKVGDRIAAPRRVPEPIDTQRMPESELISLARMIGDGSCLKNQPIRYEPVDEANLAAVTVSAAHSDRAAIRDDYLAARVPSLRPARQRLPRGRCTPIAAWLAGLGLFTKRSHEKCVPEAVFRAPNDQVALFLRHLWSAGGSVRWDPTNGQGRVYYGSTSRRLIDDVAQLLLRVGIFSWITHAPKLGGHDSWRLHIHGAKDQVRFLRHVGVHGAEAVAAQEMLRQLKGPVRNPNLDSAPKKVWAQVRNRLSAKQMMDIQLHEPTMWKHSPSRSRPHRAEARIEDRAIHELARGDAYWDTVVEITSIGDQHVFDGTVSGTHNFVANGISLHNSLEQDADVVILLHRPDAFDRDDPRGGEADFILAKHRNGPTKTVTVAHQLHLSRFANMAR
The test can be described thus: DnaB intein splicing inhibitors, dose response, biochemical, cell-free fluorescence (AID 449749). The test is classed as functional.

Test [4] addresses T3, Sentrin-specific protease 8 (Homo sapiens, UniProt Q96LD8).
T3 sequence (Q96LD8 whole entry): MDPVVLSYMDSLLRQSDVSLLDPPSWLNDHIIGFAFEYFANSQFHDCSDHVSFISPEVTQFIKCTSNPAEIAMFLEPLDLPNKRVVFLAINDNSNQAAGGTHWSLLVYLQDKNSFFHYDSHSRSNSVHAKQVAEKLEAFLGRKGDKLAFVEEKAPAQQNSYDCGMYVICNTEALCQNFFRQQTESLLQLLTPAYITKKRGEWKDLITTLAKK
It is filed as functional.

Test [5] addresses T3, Sentrin-specific protease 8. It is filed as functional. This is another data set of the same source.
Test [6] has as its target T4, Protein RecA (Mycobacterium tuberculosis, UniProt P9WHJ3).
T4 sequence (P9WHJ3 whole entry): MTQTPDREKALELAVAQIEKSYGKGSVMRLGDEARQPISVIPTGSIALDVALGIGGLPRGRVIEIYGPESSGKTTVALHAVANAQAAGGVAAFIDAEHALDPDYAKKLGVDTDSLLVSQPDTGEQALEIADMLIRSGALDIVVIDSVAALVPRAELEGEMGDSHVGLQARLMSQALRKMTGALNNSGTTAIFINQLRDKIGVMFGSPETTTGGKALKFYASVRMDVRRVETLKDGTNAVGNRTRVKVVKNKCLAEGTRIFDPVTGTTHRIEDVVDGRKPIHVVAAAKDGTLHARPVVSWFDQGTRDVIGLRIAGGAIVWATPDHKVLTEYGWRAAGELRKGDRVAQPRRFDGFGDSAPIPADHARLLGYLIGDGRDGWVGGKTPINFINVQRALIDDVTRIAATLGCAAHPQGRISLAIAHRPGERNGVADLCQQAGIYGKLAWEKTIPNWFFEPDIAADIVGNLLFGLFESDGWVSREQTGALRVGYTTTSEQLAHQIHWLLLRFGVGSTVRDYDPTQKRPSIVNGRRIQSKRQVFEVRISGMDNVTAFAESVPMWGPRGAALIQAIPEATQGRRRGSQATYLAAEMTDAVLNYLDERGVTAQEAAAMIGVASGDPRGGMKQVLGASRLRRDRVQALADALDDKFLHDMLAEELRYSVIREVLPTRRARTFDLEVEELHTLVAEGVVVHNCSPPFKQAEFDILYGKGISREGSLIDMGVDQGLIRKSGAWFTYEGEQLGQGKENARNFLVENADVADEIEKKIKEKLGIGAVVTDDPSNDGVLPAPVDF
The test can be described thus: Fluorescence Cell-Free Homogeneous Dose Retest to Identify Inhibitors of RecA-Intein Splicing Activity. [Related pubchem assays (depositor defined):AID2097, AID2223, AID489010, AID492950]. It is filed as functional.

Test [7] in a line: cytotoxicity in KRAS-transformed pancreatic duct cells, primary screen, cell-based, fluorescence, HTS (AID 431).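 Also: cell line used: HPDE-C7K.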 The test is classed as functional. The following applies: Homo sapiens.
Test [8] can be described thus: cytotoxicity in HPDE-C7 cells, cell-based, fluorescence, HTS (AID 430). It is filed as functional. The following applies: Homo sapiens.

Sequence of Protein-tyrosine kinase 2-beta (Q14289 whole entry): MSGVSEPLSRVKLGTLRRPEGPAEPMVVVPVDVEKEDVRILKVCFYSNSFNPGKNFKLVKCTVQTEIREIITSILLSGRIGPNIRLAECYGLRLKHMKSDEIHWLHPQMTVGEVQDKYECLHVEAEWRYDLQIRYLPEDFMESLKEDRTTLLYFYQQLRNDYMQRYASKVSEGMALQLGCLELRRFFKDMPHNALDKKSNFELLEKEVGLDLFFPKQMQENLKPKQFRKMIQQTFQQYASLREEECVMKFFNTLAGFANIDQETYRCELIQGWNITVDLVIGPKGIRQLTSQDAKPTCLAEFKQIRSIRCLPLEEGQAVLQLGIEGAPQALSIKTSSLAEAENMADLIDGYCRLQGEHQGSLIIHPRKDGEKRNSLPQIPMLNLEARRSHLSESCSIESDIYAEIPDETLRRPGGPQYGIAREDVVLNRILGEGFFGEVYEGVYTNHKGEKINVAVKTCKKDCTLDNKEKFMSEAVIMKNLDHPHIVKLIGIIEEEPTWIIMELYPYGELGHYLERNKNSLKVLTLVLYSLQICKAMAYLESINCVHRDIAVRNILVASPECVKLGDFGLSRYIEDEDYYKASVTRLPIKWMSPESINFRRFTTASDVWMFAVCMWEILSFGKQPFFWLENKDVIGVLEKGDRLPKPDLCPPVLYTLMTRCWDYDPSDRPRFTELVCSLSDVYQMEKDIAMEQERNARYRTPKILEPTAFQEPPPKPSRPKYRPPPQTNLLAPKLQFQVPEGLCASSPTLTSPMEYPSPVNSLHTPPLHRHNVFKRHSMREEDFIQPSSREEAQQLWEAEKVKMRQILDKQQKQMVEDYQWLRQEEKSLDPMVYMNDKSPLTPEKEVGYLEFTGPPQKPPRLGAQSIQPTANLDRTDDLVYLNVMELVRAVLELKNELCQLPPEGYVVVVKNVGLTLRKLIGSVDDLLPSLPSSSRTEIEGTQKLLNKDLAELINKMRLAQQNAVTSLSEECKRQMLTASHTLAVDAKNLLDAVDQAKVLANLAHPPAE

For the compound `O=C1Cc2ccccc2C(=O)N1CCc1ccccc1`, the IC50 in test [1] was > 69.5 µM (not active); in test [2] it was 4.03 µM (active); in test [4], 2.89 µM (active); in test [5] it was 0.148 µM (active). For the same compound, the AC50 in test [3] is 2.17 µM (active). The half-maximal effective concentration (EC50) in test [6] was 2.99 µM (active).
On to `COCCNC(=O)c1c(N)n(CCC2=CCCCC2)c2nc3ccccc3nc12`, for which the EC50 in test [7] and in test [8] was > 20 µM (not active) in each case.
